Test results as given in patent publication US11071731B2, “Allosteric modulators of the mu opioid receptor” (Chiromics, LLC, priority 2017, dated 2021).

What was measured:
[1] = target: T1, mu opioid receptor (MOR) (Homo sapiens, UniProt P35372); assay: PathHunter β-arrestin recruitment assay, PAM mode with EC20 endomorphin-1; format: cell-based; conditions: for EC50: read-out: β-arr. EC50
Procedure, shortened: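 β-Arrestin recruitment to the receptor was tracked by chemiluminescent β-galactosidase activity from complementing fragments (ED on receptor, EA on β-arrestin). Per-compound outputs were EC50 and percent maximal response.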

[2] = target: T1, mu opioid receptor (MOR); assay: Hit Hunter cAMP signaling assay (adenylyl cyclase inhibition), PAM mode with EC20 endomorphin-1; format: cell-based
[3] = maximal response for β-arrestin recruitment
[4] = cAMP EC50, adenylyl cyclase inhibition
[5] = maximal response for adenylyl cyclase inhibition
[6] = maximal response, β-arrestin recruitment
[7] = adenylyl cyclase inhibition, read-out: cAMP EC50
[8] = maximal response, adenylyl cyclase inhibition

T1 sequence (P35372 whole entry, the tested form may be a part): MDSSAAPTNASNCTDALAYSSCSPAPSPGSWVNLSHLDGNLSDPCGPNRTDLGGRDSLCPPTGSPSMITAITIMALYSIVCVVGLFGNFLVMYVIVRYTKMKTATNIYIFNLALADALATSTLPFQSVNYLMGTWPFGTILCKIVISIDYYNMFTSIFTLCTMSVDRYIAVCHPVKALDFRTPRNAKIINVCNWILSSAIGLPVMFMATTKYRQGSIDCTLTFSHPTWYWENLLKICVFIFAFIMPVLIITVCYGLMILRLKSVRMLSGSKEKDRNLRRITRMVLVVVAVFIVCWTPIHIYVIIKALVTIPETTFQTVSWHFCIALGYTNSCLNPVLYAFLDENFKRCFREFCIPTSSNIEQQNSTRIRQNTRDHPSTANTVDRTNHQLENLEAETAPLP

Compound	β-arr Max. Resp. [1, 3]	EC50 ([1]; β-arrestin recruitment) [nM]	EC50 [2, 4] [nM]	cAMP Max. Resp. [2, 5]	β-arr Max. Resp. [1, 6]	EC50 [2, 7] [nM]	cAMP Max. Resp. [2, 8]
Cc1noc(C2CCCCN2c2nc(Cl)ncc2F)n1 (stereo not shown) [compound 358]	D (D represents a maximal response of < 40%)	< 700	< 700	D (D represents a maximal response of < 40%)	–	–	–
Fc1cnc(Cl)nc1N1CCCCC1c1cncc(Cl)n1 (stereo not shown) [compound 277]	E (E represents a maximal response of 40-60%)	> 2100	> 2100	D (D represents a maximal response of < 40%)	–	–	–
COc1ccc(N2CCCCC2c2cccc(C(F)(F)F)n2)cc1 (stereo not shown) [compound 474]	–	> 2100	–	–	D (D represents a maximal response of < 40%)	> 2100	D (D represents a maximal response of < 40%)
[N-]=[N+]=Nc1cccc(C2CCCCN2Cc2cc(Cl)ccc2F)n1 (stereo not shown) [compound 144]	E (E represents a maximal response of 40-60%)	> 2100	> 2100	D (D represents a maximal response of < 40%)	–	–	–
CC1CCN(S(=O)(=O)c2ccc(Cl)cc2)C1c1ccc(Cl)c(Br)c1 (mixture of isomers) [Compound 99]	E (E represents a maximal response of 40-60%)	< 700	–	D (D represents a maximal response of < 40%)	–	< 700	–
CC1CCN(S(=O)(=O)c2ccc(Cl)cc2)C1c1ccc(Cl)cc1 (mixture of isomers) [Compound 88]	E (E represents a maximal response of 40-60%)	> 2100	–	D (D represents a maximal response of < 40%)	–	> 2100	–
[2H]C1(c2ccc(F)c(Br)c2)C(F)CCCN1S(=O)(=O)c1ccc(Cl)cc1 (stereo not shown) [Compound 29]	F (F represents a maximal response of > 60%)	–	–	E (E represents a maximal response of 40-60%)	–	–	–
COc1ccc(C2CCCCN2S(=O)(=O)c2cccnc2Cl)cc1Br (stereo not shown) [compound 17]	D (D represents a maximal response of < 40%)	> 2100	> 2100	D (D represents a maximal response of < 40%)	–	–	–
O=S(=O)(c1cccc(Cl)c1)N1CCCCC1c1cccc(C(F)(F)F)c1 (stereo not shown) [Compound 21]	F (F represents a maximal response of > 60%)	> 2100	–	F (F represents a maximal response of > 60%)	–	> 2100	–
Cc1ccc(C2CCCCN2c2nc(Cl)ncc2F)cn1 (stereo not shown) [compound 411]	D (D represents a maximal response of < 40%)	< 700	< 700	D (D represents a maximal response of < 40%)	–	–	–
COc1ncc(F)c(N2CCCCC2c2cccc(C(F)(F)F)c2)n1 (stereo not shown) [compound 271]	F (F represents a maximal response of > 60%)	> 2100	700 to 2100	E (E represents a maximal response of 40-60%)	–	–	–
Fc1cc(C2CC(F)(F)CCN2c2nc(Cl)ncc2F)cc(C(F)(F)F)c1 (stereo not shown) [compound 198]	F (F represents a maximal response of > 60%)	700 to 2100	700 to 2100	F (F represents a maximal response of > 60%)	–	–	–
O=S(=O)(c1ccc(Cl)cc1)N1CCCCC1c1ccc(F)cn1 (racemic) [compound 54]	F (F represents a maximal response of > 60%)	> 2100	–	E (E represents a maximal response of 40-60%)	–	> 2100	–
COc1ncc(F)c(N2CCCCC2c2cccc(F)n2)n1 (stereo not shown) [compound 272]	D (D represents a maximal response of < 40%)	> 2100	> 2100	F (F represents a maximal response of > 60%)	–	–	–
Fc1ccc(C2C3CCC(C3)N2c2nc(Cl)ncc2F)cc1Br (stereo not shown) [compound 136]	F (F represents a maximal response of > 60%)	> 2100	> 2100	D (D represents a maximal response of < 40%)	–	–	–
Fc1cc(Cl)cc(CN2CCCCC2c2cccc(C(F)(F)F)n2)c1 (stereo not shown) [compound 164]	F (F represents a maximal response of > 60%)	700 to 2100	< 700	E (E represents a maximal response of 40-60%)	–	–	–
CC(C)(O)C(=O)N1CCN(c2nc(Cl)ncc2F)C(c2cc(F)cc(C(F)(F)F)c2)C1 (racemic) [Compound 307]	D (D represents a maximal response of < 40%)	> 2100	–	F (F represents a maximal response of > 60%)	–	> 2100	–
Fc1cc(C2CC(F)CN2c2nc(Cl)ncc2F)cc(C(F)(F)F)c1 (stereo not shown) [compound 468]	–	> 2100	–	–	F (F represents a maximal response of > 60%)	> 2100	F (F represents a maximal response of > 60%)
